# Results published in patent publication US20130281399A1, “TREATMENT OF DISEASES BY EPIGENETIC REGULATION” (RVX Therapeutics Inc., priority 2012, published 2013).
# Experiments:
# [1] = molecular target: T1, Brd4 bromodomain 1 (Homo sapiens, UniProt O60885); assay: Inhibition of binding of tetra-acetylated histone H4 to Brd4 bromodomain 1 (TR-FRET); conditions: His-tagged Brd4 bromodomain 1 200 nM, tetra-acetylated histone H4 peptide 25-50 nM, 2 hours room temperature
# T1 construct: made in house; host or cells: E. coli BL21(DE3)
# Method in brief: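 His-tagged Brd4 BD1 was expressed in E. coli and purified by Ni affinity and size exclusion. TR-FRET competition with tetra-acetylated H4 was run in 30 mM HEPES pH 7.4, 30 mM NaCl, 0.3 mM CHAPS, 20 mM phosphate pH 7.0, 320 mM KF and 0.08% BSA, with 0.2% DMSO.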
# [2] = tested on: c-myc; assay: Inhibition of c-myc expression in MV4-11 cells (real-time PCR of mRNA); assay type: cell-based, Human; set-up: key: Active: Compounds with an IC50 value less than 30 uM were deemed to be active; conditions: 3 hours at 37° C.
# Experimental: MV4-11 cells (2.5×10^4 cells) were plated in 96 well U-bottom plates with test compound or DMSO (0.1%), and incubated for 3 hours at 37° C. Cells were then harvested by centrifugation, lysed, and mRNA was isolated using the mRNA catcher plus kit (Invitrogen). Reverse transcription of the mRNA and duplex amplification of the c-myc and cyclophilin cDNAs was performed using the RNA Ultrasense kit (Invitrogen) and a ViiA7 real-time PCR machine (Applied Biosystems). IC50 values were determined from a dose response curve.
FRET activity (<50 uM) [1],melting point,Structure (SMILES),c-myc activity (<30 uM) [2]
Active,291 to 292 °C,"COc1cc(OC)c2c(=O)[nH]c(-c3cc(C)nc(C)c3)nc2c1 [Example 99, 2-(2,6-Dimethylpyridin-4-yl)-5,7-dimethoxyquinazolin-4(3H)-one]",–
Active,230 to 231 °C,"COc1cc(OC)c2c(=O)[nH]c(-c3ccc(OCCN4CCCC4)c(C)c3)nc2c1 [Example 73, 5,7-Dimethoxy-2-(3-methyl-4-(2-(pyrrolidin-1-yl)ethoxy)phenyl)quinazolin-4(3H)-one]",Active
Active,223 to 224 °C,"COc1cc(OCCOc2ccccc2)cc2nc(-c3cc(C)nc(C)c3)[nH]c(=O)c12 [Example 103, 2-(2,6-Dimethylpyridin-4-yl)-5-methoxy-7-(2-phenoxyethoxy)quinazolin-4(3H)-one]",–
Active,219.6 to 221.4 °C,"COc1cc(OC)c2c(=O)[nH]c(-c3cc(C)c(OCCN4C(=O)NC(c5ccccc5)C4=O)c(C)c3)nc2c1 (stereo not drawn) [Example 79, 3-(2-(4-(5,7-Dimethoxy-4-oxo-3,4-dihydroquinazolin-2-yl)-2,6-dimethylphenoxy)ethyl)-5-phenylimidazolidine-2,4-dione]",–
Active,106.9 to 109.1 °C,"COc1cc(OC)c2c(=O)[nH]c(-c3cc(C)cc(OCCO)c3)nc2c1 [Example 113, 2-(3-(2-Hydroxyethoxy)-5-methylphenyl)-5,7-dimethoxyquinazolin-4(3H)-one]",–
Active,228.8 to 230.4 °C,"COCCOc1cc(OC)c2c(=O)[nH]c(-c3cc(C)nc(C)c3)nc2c1 [Example 100, 2-(2,6-Dimethylpyridin-4-yl)-5-methoxy-7-(2-methoxyethoxy)quinazolin-4(3H)-one]",–
Inactive,228.2 to 229.9 °C,"COc1cc(OCCOCc2ccccc2)cc2nc(-c3ccncc3)[nH]c(=O)c12 [Example 98, 7-(2-(Benzyloxy)ethoxy)-5-methoxy-2-(pyridin-4-yl)quinazolin-4(3H)-one]",–
Active,295 to 296 °C,"COc1cc(OC)c2c(=O)[nH]c(-c3ccc(Cc4nnn[nH]4)cc3)nc2c1 [Example 96, 2-(4-((1H-Tetrazol-5-yl)methyl)phenyl)-5,7-dimethoxyquinazolin-4(3H)-one]",–
Active,172.3 to 173.2 °C,"COc1cc(OCCOc2ccccc2)c2c(=O)[nH]c(-c3cc(C)nc(C)c3)nc2c1 [Example 104, 2-(2,6-Dimethylpyridin-4-yl)-7-methoxy-5-(2-phenoxyethoxy)quinazolin-4(3H)-one]",–
Active,227 to 229 °C,"COc1cc(OCCN2CCCC2)cc2nc(-c3cc(C)nc(C)c3)[nH]c(=O)c12 [Example 106, 2-(2,6-Dimethylpyridin-4-yl)-5-methoxy-7-(2-(pyrrolidin-1-yl)ethoxy)quinazolin-4(3H)-one]",–
Active,204 to 205 °C,"COc1cc(OC)c2c(=O)[nH]c(-c3cc(C)c(OCCN4CCC4)c(C)c3)nc2c1 [Example 86, 2-(4-(2-(Azetidin-1-yl)ethoxy)-3,5-dimethylphenyl)-5,7-dimethoxyquinazolin-4(3H)-one]",–
Active,218 to 219 °C,"COc1cc(OC)c2c(=O)[nH]c(-c3cc(C)c(OCCn4ccnc4)c(C)c3)nc2c1 [Example 69, 2-(4-(2-(1H-Imidazol-1-yl)ethoxy)-3,5-dimethylphenyl)-5,7-dimethoxyquinazolin-4(3H)-one]",–
Inactive,317 to 318 °C,"COc1cc(OC)c2c(=O)[nH]c(-c3ccc(CN4C(=O)CNC4=O)cc3)nc2c1 [Example 80, 3-(4-(5,7-Dimethoxy-4-oxo-3,4-dihydroquinazolin-2-yl)benzyl)imidazolidine-2,4-dione]",–
Active,149.8 to 151.4 °C,"COCCOc1cc(OCCOC)c2c(=O)[nH]c(-c3cc(C)nc(C)c3)nc2c1 [Example 101, 2-(2,6-Dimethylpyridin-4-yl)-5,7-bis(2-methoxyethoxy)quinazolin-4(3H)-one]",–
Active,60.4 to 62.3 °C,"COCCOc1cc(OCCN2CCCC2)c2c(=O)[nH]c(-c3cc(C)nc(C)c3)nc2c1 [Example 111, 2-(2,6-Dimethylpyridin-4-yl)-7-(2-methoxyethoxy)-5-(2-(pyrrolidin-1-yl)ethoxy)quinazolin-4(3H)-one]",–
Active,244.8 to 246 °C,"COc1cc(OC)c2c(=O)[nH]c(-c3cccc(OCCO)c3)nc2c1 [Example 112, 2-(3-(2-Hydroxyethoxy)phenyl)-5,7-dimethoxyquinazolin-4(3H)-one]",–

# The next lines start with the molecule.
Structure (SMILES),FRET activity (<50 uM) [1],melting point,c-myc activity (<30 uM) [2]
"COc1cc(OC)c2c(=O)[nH]c(-c3ccc(N4CCC(O)CC4)cc3)nc2n1 [Example 8, 2-(4-(4-Hydroxypiperidin-1-yl)phenyl)-5,7-dimethoxypyrido[2,3-d]pyrimidin-4(3H)-one]",Active,284 to 286 °C,–
"Cc1cc(-c2nc3cccc(Cl)c3c(=O)[nH]2)cc(C)c1OCCN1CCCC1 [Example 83, 5-Chloro-2-(3,5-dimethyl-4-(2-(pyrrolidin-1-yl)ethoxy)phenyl)quinazolin-4(3H)-one]",Inactive,179 to 180 °C,–
"Cc1cc(-c2nc3cc(OCCOC(C)C)cc(OCCOC(C)C)c3c(=O)[nH]2)cc(C)n1 [Example 108, 2-(2,6-dimethylpyridin-4-yl)-5,7-bis(2-isopropoxyethoxy)quinazolin-4(3H)-one]",Active,124 to 125 °C,–
"Cc1cc(-c2nc3cc(Cl)cc(Cl)c3c(=O)[nH]2)cc(C)c1OCCN1CCCC1 [Example 67, 5,7-Dichloro-2-(3,5-dimethyl-4-(2-(pyrrolidin-1-yl)ethoxy)phenyl)quinazolin-4(3H)-one]",Inactive,209 to 210 °C,–
"COc1cc(OC)c2c(=O)[nH]c(-c3cc(C)c(OCCN4CCN(C)CC4)c(C)c3)nc2c1 [Example 71, 2-(3,5-Dimethyl-4-(2-(4-methylpiperazin-1-yl)ethoxy)phenyl)-5,7-dimethoxyquinazolin-4(3H)-one]",Active,180 to 182 °C,–
"COc1cc(OC)c2c(=O)[nH]c(-c3cc(C)c(OCCN4C(=O)CN(C(C)C)C4=O)c(C)c3)nc2c1 [Example 74, 3-(2-(4-(5,7-Dimethoxy-4-oxo-3,4-dihydroquinazolin-2-yl)-2,6-dimethylphenoxy)ethyl)-1-isopropylimidazolidine-2,4-dione]",Active,219 to 221 °C,–
"COc1cc(OC)c2c(=O)[nH]c(-c3cc(C)c(OCCN4CCN(C(C)=O)CC4)c(C)c3)nc2c1 [Example 68, 2-(4-(2-(4-Acetylpiperazin-1-yl)ethoxy)-3,5-dimethylphenyl)-5,7-dimethoxyquinazolin-4(3H)-one]",Active,213 to 214 °C,–
"COc1ccc2c(=O)[nH]c(-c3cc(C)c(OCCN4CCCC4)c(C)c3)nc2c1 [Example 70, 2-(3,5-Dimethyl-4-(2-(pyrrolidin-1-yl)ethoxy)phenyl)-7-methoxyquinazolin-4(3H)-one]",Inactive,218 to 220 °C,–
"COc1cc(OC)c2c(=O)[nH]c(-c3cc(C)c(OCCN4CCCCCC4)c(C)c3)nc2c1 [Example 84, 2-(4-(2-(Azepan-1-yl)ethoxy)-3,5-dimethylphenyl)-5,7-dimethoxyquinazolin-4(3H)-one]",Active,198 to 199 °C,–
"Cc1cc(C)c2c(=O)[nH]c(-c3cc(C)c(OCCN4CCCC4)c(C)c3)nc2c1 [Example 89, 2-(3,5-Dimethyl-4-(2-(pyrrolidin-1-yl)ethoxy)phenyl)-5,7-dimethylquinazolin-4(3H)-one]",Active,181 to 182 °C,–
"COc1cc(OC)c2c(=O)[nH]c(-c3cc(C)c(OCCN4CC(NC(C)=O)C4)c(C)c3)nc2c1 [Example 87, N-(1-(2-(4-(5,7-Dimethoxy-4-oxo-3,4-dihydroquinazolin-2-yl)-2,6-dimethylphenoxy)ethyl)azetidin-3-yl)acetamide]",Active,111.8 to 113.6 °C,–
"COc1cc(OC)c2c(=O)[nH]c(-c3cc(C)c(CCCN4CCCC4)c(C)c3)nc2c1 [Example 77, 2-(3,5-Dimethyl-4-(3-(pyrrolidin-1-yl)propyl)phenyl)-5,7-dimethoxyquinazolin-4(3H)-one]",Active,194 to 196 °C,–
